The results in this text go back to patent US9133262B2, “Somatostatin antagonists” (Ipsen Pharma S.A.S., priority 1996, dated 2015).

Molecules are shown by their SMILES. Like-named read-outs stand apart in the source and are kept apart here. Positions of bridges follow the written chain, without caps; N, C: chain ends. Non-standard residues stand in square brackets, D forms with d. Residues, ends and D or L forms follow the SMILES beside them. Bip = N[C@@H](Cc1ccc(-c2ccccc2)cc1)C(=O)O; dBip = N[C@H](Cc1ccc(-c2ccccc2)cc1)C(=O)O; Phe(4-F) = N[C@@H](Cc1ccc(F)cc1)C(=O)O; dPhe(4-F) = N[C@H](Cc1ccc(F)cc1)C(=O)O; 2Nal = N[C@@H](Cc1ccc2ccccc2c1)C(=O)O; d2Nal = N[C@H](Cc1ccc2ccccc2c1)C(=O)O; 3Pal = N[C@@H](Cc1cccnc1)C(=O)O; Tle = CC(C)(C)[C@H](N)C(=O)O; Nle = CCCC[C@H](N)C(=O)O

This assay has as its system rat pituitary cells. It is filed as cell-based. The source says: Bioassay on the In Vitro Release of Growth Hormone
(a) Rat Pituitary Cell Dispersion
Pituitaries from adult Charles River CD male rats (Wilmington, Mass.) housed under controlled conditions were dispersed and cultured using aseptic technique by modification of previously described methods (Hoefer, M. T., et al., Mol. Cell. Endocrinol. 35:229 (1984); Ben-Jonathan, N., et al., Methods Enzymol. 103:249 (1983); and Heiman, M. L., et al., Endocrinology 116:410 (1985)). Pituitaries were removed from sacrificed rats, sectioned, and then placed into a siliconized, liquid scintillation vial containing 2 ml 0.2% trypsin (Worthington Biochemicals, Freehold, N.J.) in sterile-filtered Krebs-Ringer bicarbonate buffer supplemented with 1% bovine serum albumin, 14 mM glucose, modified Eagle medium (MEM) vitamin solution, and MEM amino acids (Gibco Laboratories, Grand Island, N.Y.) (KRBGA). All glassware was siliconized as described by Sayers, et al., Endocrinology 88:1063 (1971). The fragments were incubated in a water bath for 35 min at 37° C. with agitation. The vial contents then were poured into a scintillation vial containing 2 ml 0.1% DNase (Sigma Chemical Co., St. Louis, Mo.) in KRBGA and incubated for 2 min at 37° C. with agitation. After incubation, the tissue was decanted into a 15 ml centrifuge tube and allowed to settle. Medium was discarded, and pituitary sections were washed 3 times with 1 ml fresh-KRBGA. The cells were then dispersed in 2 ml 0.05% LBI (lima bean trypsin inhibitor, Worthington Biochemicals) by gently drawing the fragments into and expelling them out of a siliconized, fire polished Pasteur pipette. Dispersed cells were then filtered through a 630 μm diameter Nylon mesh (Tetko, Elmsford, N.Y.) into a fresh 15 ml centrifuge tube. An additional 2 ml of 0.05% LBI solution was used to rinse the first tube and was transferred to the second tube with filtering.
The dispersed cells were then further diluted with approximately 15 ml sterile-filtered Dulbecco's modified Eagle medium (GIBCO), which was supplemented with 2.5% fetal calf serum (GIBCO), 3% horse serum (GIBCO), 10% fresh rat serum (stored on ice for no longer than 1 hr) from the pituitary donors, 1% MEM non-essential amino acids (GIBCO), and gentamycin (10 ng/ml; Sigma) and nystatin (10,000 U/ml; GIBCO). The cells were poured into a 50 ml round-bottomed glass extraction flask with a large diameter opening and then randomly plated at a density of approximately 200,000 cells per well (Co-star cluster 24; Rochester Scientific Co., Rochester, N.Y.). The plated cells were maintained in the above Dulbecco's medium in a humidified atmosphere of 95% air and 5% CO2 at 37° C. for 4-5 days.
(c) Experimental Incubation and IC50 Determination
In preparation for a hormone challenge, the cells were washed 3 times with medium 199 (GIBCO) to remove old medium and floating cells. Each treatment well contained a total volume of 1 ml medium 199 containing 1% BSA (fraction V; Sigma) with treatments as described below. Each antagonist candidate was tested using a single 24-well cell culture plate. Each treatment was performed in triplicate. Each plate contained 8 treatment groups: one 1 nM growth hormone releasing factor (GRF) (1-29)NH2-stimulated control group; one 1 nM somatostatin-inhibited control group in the presence of 1 nM GRF(1-29)NH2; and 6 doses of a given antagonist in the presence of both 1 nM SRIF and 1 nM GRF per plate. After 3 hrs at 37° C. in a air/carbon dioxide atmosphere (95/5%), the medium was removed and stored at −20° C. until radioimmunoassayed for growth hormone content. IC50's of each antagonist versus 1 nM SRIF were calculated using a computer program (SigmaPlot, Jandel Scientific, San Rafael, Calif.) with the maximum response constrained to the value of the 1 nM GRF(1-29)NH2-stimulated control.

Where [1] appears, read: cultured rat pituitary cells, 1 nM SRIF and 1 nM GRF(1-29)NH2, 3 hrs at 37° C., growth hormone by radioimmunoassay, read-out: IC50 of antagonist versus 1 nM SRIF (growth hormone release).

Turning to `CC(C)[C@@H]1NC(=O)[C@H](CCCCN)NC(=O)[C@@H](Cc2c[nH]c3ccccc23)NC(=O)[C@H](Cc2ccc(O)cc2)NC(=O)[C@H](NC(=O)[C@@H](N)Cc2c[nH]c3ccccc23)CSSC[C@@H](C(=O)N[C@H](Cc2ccc3ccccc3c2)C(N)=O)NC1=O` [Analog No. 24, H2-Trp-D-Cys-Tyr-D-Trp-Lys-Val-Cys-D-β-Nal-NH2] (H-W[dC]Y[dW]KVC[d2Nal]-NH2; disulfide 2-7), under setting [1], the IC50 is 0.068 µM. Still for that read-out and setting: next, `CC(C)[C@@H]1NC(=O)[C@H](CCCCN)NC(=O)[C@@H](Cc2c[nH]c3ccccc23)NC(=O)[C@H](Cc2ccc(O)cc2)NC(=O)[C@H](NC(=O)[C@@H](N)Cc2ccc3ccccc3c2)CSSC[C@@H](C(=O)N[C@H](Cc2ccc3ccccc3c2)C(N)=O)NC1=O` [Analog No. 25, H2-β-Nal-D-Cys-Tyr-D-Trp-Lys-Val-Cys-D-β-Nal-NH2] (H-[2Nal][dC]Y[dW]KVC[d2Nal]-NH2; disulfide 2-7): 0.28 µM; `CC(C)[C@@H]1NC(=O)[C@H](CCCCN)NC(=O)[C@@H](Cc2c[nH]c3ccccc23)NC(=O)[C@H](Cc2ccc(O)cc2)NC(=O)[C@H](NC(=O)[C@H](N)Cc2ccc3ccccc3c2)CSSC[C@@H](C(=O)N[C@H](Cc2ccc3ccccc3c2)C(N)=O)NC1=O` [Analog No. 26, H2-D-β-Nal-D-Cys-Tyr-D-Trp-Lys-Val-Cys-D-β-Nal-NH2] (H-[d2Nal][dC]Y[dW]KVC[d2Nal]-NH2; disulfide 2-7): 0.38 µM. For the compound `CC(C)[C@@H]1NC(=O)[C@H](CCCCN)NC(=O)[C@@H](Cc2c[nH]c3ccccc23)NC(=O)[C@H](Cc2cccnc2)NC(=O)[C@H](NC(=O)[C@H](N)Cc2ccc(F)cc2)CSSC[C@@H](C(=O)N[C@H](Cc2ccc(F)cc2)C(N)=O)NC1=O` [Analog No. 27, H2-D-p-F-Phe-D-Cys-Pal-D-Trp-Lys-Val-Cys-D-p-F-Phe-NH2] (H-[dPhe(4-F)][dC][3Pal][dW]KVC[dPhe(4-F)]-NH2; disulfide 2-7), for the setting “3 h”, the IC50 was 0.041 µM. In turn, `CC(C)[C@@H]1NC(=O)[C@H](CCCCN)NC(=O)[C@@H](Cc2c[nH]c3ccccc23)NC(=O)[C@H](Cc2cccnc2)NC(=O)[C@H](NC(=O)[C@@H](N)Cc2ccc3ccccc3c2)CSSC[C@@H](C(=O)N[C@H](Cc2ccc(F)cc2)C(N)=O)NC1=O` [Analog No. 28, H2-β-Nal-D-Cys-Pal-D-Trp-Lys-Val-Cys-D-p-F-Phe-NH2] (H-[2Nal][dC][3Pal][dW]KVC[dPhe(4-F)]-NH2; disulfide 2-7) displayed an IC50 (3 h) of 0.1 µM. On to `CC(C)(C)[C@@H]1NC(=O)[C@H](CCCCN)NC(=O)[C@@H](Cc2c[nH]c3ccccc23)NC(=O)[C@H](Cc2cccnc2)NC(=O)[C@H](NC(=O)[C@@H](N)Cc2ccc3ccccc3c2)CSSC[C@@H](C(=O)N[C@@H](Cc2ccc3ccccc3c2)C(N)=O)NC1=O` [Analog No. 29, H2-β-Nal-D-Cys-Pal-D-Trp-Lys-Tle-Cys-β-Nal-NH2] (H-[2Nal][dC][3Pal][dW]K[Tle]C[2Nal]-NH2; disulfide 2-7), for which the IC50 (3 h) was determined as 0.0084 µM. The same measure, in the same setting: under `CC(C)[C@@H]1NC(=O)[C@H](CCCCN)NC(=O)[C@@H](Cc2c[nH]c3ccccc23)NC(=O)[C@H](Cc2cccnc2)NC(=O)[C@H](NC(=O)[C@@H](N)Cc2ccc(F)cc2)CSSC[C@@H](C(=O)N[C@@H](Cc2ccc3ccccc3c2)C(N)=O)NC1=O` [Analog No. 30, H2-p-F-Phe-D-Cys-Pal-D-Trp-Lys-Val-Cys-β-Nal-NH2] (H-[Phe(4-F)][dC][3Pal][dW]KVC[2Nal]-NH2; disulfide 2-7) stands 0.0065 µM.

`CCCC[C@@H]1NC(=O)[C@H](CCCCN)NC(=O)[C@@H](Cc2c[nH]c3ccccc23)NC(=O)[C@H](Cc2cccnc2)NC(=O)[C@H](NC(=O)[C@@H](N)Cc2ccc3ccccc3c2)CSSC[C@@H](C(=O)N[C@@H](Cc2ccc3ccccc3c2)C(N)=O)NC1=O` [Analog No. 31, H2-β-Nal-D-Cys-Pal-D-Trp-Lys-Nle-Cys-β-Nal-NH2] (H-[2Nal][dC][3Pal][dW]K[Nle]C[2Nal]-NH2; disulfide 2-7): the half-inhibitory concentration (IC50) (3 h) was 0.0038 µM. Same read-out and setting: next, `CC[C@H](C)[C@@H]1NC(=O)[C@H](CCCCN)NC(=O)[C@@H](Cc2c[nH]c3ccccc23)NC(=O)[C@H](Cc2cccnc2)NC(=O)[C@H](NC(=O)[C@@H](N)Cc2ccc3ccccc3c2)CSSC[C@@H](C(=O)N[C@@H](Cc2ccc3ccccc3c2)C(N)=O)NC1=O` [Analog No. 32, H2-β-Nal-D-Cys-Pal-D-Trp-Lys-Ile-Cys-β-Nal-NH4] (H-[2Nal][dC][3Pal][dW]KIC[2Nal]-NH2; disulfide 2-7): 0.012 µM. As to `NCCCC[C@@H]1NC(=O)[C@@H](Cc2c[nH]c3ccccc23)NC(=O)[C@H](Cc2cccnc2)NC(=O)[C@H](NC(=O)[C@@H](N)Cc2ccc3ccccc3c2)CSSC[C@@H](C(=O)N[C@@H](Cc2ccc3ccccc3c2)C(N)=O)NC(=O)CNC1=O` [Analog No. 33, H2-β-Nal-D-Cys-Pal-D-Trp-Lys-Gly-Cys-β-Nal-NH2] (H-[2Nal][dC][3Pal][dW]KGC[2Nal]-NH2; disulfide 2-7), the IC50 (3 h) stood at 1.5 µM. On to `C[C@@H]1NC(=O)[C@H](CCCCN)NC(=O)[C@@H](Cc2c[nH]c3ccccc23)NC(=O)[C@H](Cc2cccnc2)NC(=O)[C@H](NC(=O)[C@@H](N)Cc2ccc3ccccc3c2)CSSC[C@@H](C(=O)N[C@@H](Cc2ccc3ccccc3c2)C(N)=O)NC1=O` [Analog No. 34, H2-β-Nal-D-Cys-Pal-D-Trp-Lys-Ala-Cys-β-Nal-NH2] (H-[2Nal][dC][3Pal][dW]KAC[2Nal]-NH2; disulfide 2-7), for which half-maximal inhibition (3 h) (IC50) was put at 0.42 µM.

Take `CC(C)C[C@@H]1NC(=O)[C@H](CCCCN)NC(=O)[C@@H](Cc2c[nH]c3ccccc23)NC(=O)[C@H](Cc2cccnc2)NC(=O)[C@H](NC(=O)[C@@H](N)Cc2ccc3ccccc3c2)CSSC[C@@H](C(=O)N[C@@H](Cc2ccc3ccccc3c2)C(N)=O)NC1=O` [Analog No. 35, H2-β-Nal-D-Cys-Pal-D-Trp-Lys-Leu-Cys-β-Nal-NH2] (H-[2Nal][dC][3Pal][dW]KLC[2Nal]-NH2; disulfide 2-7): the midpoint of inhibition (3 h), the IC50, lay at 0.052 µM.

Take `CC[C@H](C)[C@@H]1NC(=O)[C@H](CCCCN)NC(=O)[C@@H](Cc2c[nH]c3ccccc23)NC(=O)[C@H](Cc2ccc(O)cc2)NC(=O)[C@H](NC(=O)[C@@H](N)Cc2ccc(-c3ccccc3)cc2)CSSC[C@@H](C(=O)N[C@@H](Cc2ccc(-c3ccccc3)cc2)C(N)=O)NC1=O` [Analog No. 36, H2-Bip-D-Cys-Tyr-D-Trp-Lys-Ile-Cys-Bip-NH2] (H-[Bip][dC]Y[dW]KIC[Bip]-NH2; disulfide 2-7): the IC50 (3 h) worked out at 1.03 µM. Still for that read-out and setting: next, `CC(C)[C@@H]1NC(=O)[C@H](CCCCN)NC(=O)[C@@H](Cc2c[nH]c3ccccc23)NC(=O)[C@H](Cc2ccc(O)cc2)NC(=O)[C@H](NC(=O)[C@H](N)Cc2ccc(-c3ccccc3)cc2)CSSC[C@@H](C(=O)N[C@@H](Cc2ccc3ccccc3c2)C(N)=O)NC1=O` [Analog No. 37, H2-D-Bip-D-Cys-Tyr-D-Trp-Lys-Val-Cys-β-Nal-NH2] (H-[dBip][dC]Y[dW]KVC[2Nal]-NH2; disulfide 2-7): 0.78 µM. As to `CC(C)[C@@H]1NC(=O)[C@H](CCCCN)NC(=O)[C@@H](Cc2c[nH]c3ccccc23)NC(=O)[C@H](Cc2c[nH]cn2)NC(=O)[C@H](NC(=O)[C@@H](N)Cc2ccc(F)cc2)CSSC[C@@H](C(=O)N[C@@H](Cc2ccc(F)cc2)C(N)=O)NC1=O` [Analog No. 38, H2-p-F-Phe-D-Cys-His-D-Trp-Lys-Val-Cys-p-F-Phe-NH2] (H-[Phe(4-F)][dC]H[dW]KVC[Phe(4-F)]-NH2; disulfide 2-7), the IC50 (3 h) turned out to be 0.11 µM.

As a reminder, the IC50 is the concentration that gives 50% inhibition.
